Reference: patent US20130252956A1, “METHODS OF TREATING CANCER” (priority 2010, published 2013)

Assays:
[1] = tested on: unresectable/metastatic HCC; test: Antitumour activity (time to progression by modified RECIST) in patients dosed at the maximum tolerated dose; assay type: in vivo, human; conditions: 38 evaluable patients at the maximum tolerated dose (30 mg OD); 95% confidence intervals (2.8, not achieved)
Text: To enable a more accurate description of the potential clinical benefit of foretinib in patients with HCC, the method of tumor evaluation was changed to incorporate the mRECIST criteria for HCC as proposed by Llovet et al (Llovet, et al. 2008 supra) and further described by Lencioni & Llovet (Lencioni & Llovet Modified RECIST (mRECIST) Assessment for Hepatocellular Carcinoma. Seminars in Liver Disease. 2010; 30:52-60) in addition to the standard RECIST assessment.
The primary endpoint for assessing antitumor activity will be response rate (CR+PR) according to mRECIST (Lencioni, 2010), assessed by independent, central, radiological review, in subjects with advanced (unresectable and/or metastatic) HCC treated with foretinib at the maximum tolerated dose. […]
Tumor response for subjects with measurable lesions should be assessed routinely as specified in the table below. Serial CT-scans (preferred) or MRI will be evaluated for response (CR or PR) and SD according to mRECIST (Lecioni, 2010) and RECIST 1.0 (Therasse, et al. New guidelines to evaluate the response to treatment in solid tumors. European Organization for Research and Treatment of Cancer, National Cancer Institute of the United States, National Cancer Institute of Canada. J Natl Cancer Inst. 2000; 92:205-16.). […]

[2] = Phase I dose escalation/expanded cohort study of oral foretinib in HCC patients: safety, dose-limiting toxicities, maximum tolerated dose; conditions: human, in vivo
Method: Each treatment cycle will consist of 21 consecutive days. Subjects enrolled in this study will receive oral foretinib administered once daily. Blood samples for PK analysis will be obtained before and after dosing on Days 1 and 15 of Treatment Period 1 in both the Dose-Escalation and Expanded Cohort Phases. For subjects in the Expanded Cohort Phase, no dose will be administered on Days 2 and 3 of Treatment Period 1 to allow the pharmacokinetics of foretinib to be assessed over a 72 hour interval after the first dose. Subjects will continue to receive study drug until disease progression or withdrawal from study because of unacceptable toxicity or other reasons (e.g., withdrawal of consent, noncompliance). Disease progression is defined as objective disease progression according to mRECIST and/or clinical progression (e.g. emergence of significant new disease-related symptoms and/or significant deterioration of pre-existing disease-related symptoms requiring treatment; or deterioration of ECOG performance status by 2 units—see Appendix 3). For the purpose of the final analysis, the duration of the study is planned to be 2 years after enrollment is completed.
Patients with measurable unresectable/metastatic HCC, no prior sorafenib or other multi-kinase inhibitors, ECOG PS 0-1, adequate organ function and Child-Pugh grade A are eligible for enrolment. […]

first-line advanced HCC = first-line advanced HCC patients treated with sorafenib; 95% CI (2.6, 3.6); cited from earlier work

COc1cc2c(Oc3ccc(NC(=O)C4(C(=O)Nc5ccc(F)cc5)CC4)cc3F)ccnc2cc1OCCCN1CCOCC1 [foretinib, N^1-{3-fluoro-4-[(6-(methyloxy)-7-{[3-(4-morpholinyl)propyl]oxy}-4-quinolinyl)oxy]phenyl}-N^1-(4-fluorophenyl)-1,1-cyclopropanedicarboxamide]
Median time-to-progression using modified-RECIST [1]: 4.5 months
Dose-limiting toxicities [2]: no dose limiting toxicities were observed
Dose-limiting toxicities (renal failure, proteinuria), patients affected [2]: 2/6

CNC(=O)c1cc(Oc2ccc(NC(=O)Nc3ccc(Cl)c(C(F)(F)F)c3)cc2)ccn1 [sorafenib, 4-[4-[[4-chloro-3-(trifluoromethyl)phenyl]carbamoylamino]phenoxy]-N-methyl-pyridine-2-carboxamide]
Median time to progression (first-line advanced HCC): 2.8 months
